Source: PubChem BioAssay (NCI)
Values joined by “and” are separate entries in the source; they are usually repeats but may differ in a detail not shown here. Equal values may be shown once.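 96-well plates; 48 h exposure; 5 concentrations. Endpoints by linear interpolation between flanking doses. Not reached: highest tested concentration assigned. GI50: concentration for 50% inhibition of growth. Definition used: TGI = concentration required for complete inhibition of growth.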

Experiments:
Experiment in all cases: inhibition of tumour cell growth, NCI panel, 48 h
HOP-18 NSCLC = tested on: HOP-18 NSCLC
XF 498 CNS = tested on: XF 498 CNS
DMS 114 small cell lung = tested on: DMS 114 small cell lung
M19-MEL melanoma = tested on: M19-MEL melanoma
DMS 273 small cell lung = tested on: DMS 273 small cell lung
DLD-1 colon = tested on: DLD-1 colon
RXF-631 renal = tested on: RXF-631 renal
KM20L2 colon = tested on: KM20L2 colon
MDA-N = tested on: MDA-N

ClC/C=C/COC1CCCCO1 (stereo not drawn) gave a TGI (HOP-18 NSCLC) greater than 100 µM, a TGI (XF 498 CNS) greater than 100 µM and a TGI (DMS 114 small cell lung) greater than 100 µM. For the same molecule, the TGI (M19-MEL melanoma) was greater than 100 µM, the TGI (DMS 273 small cell lung) was greater than 100 µM and the TGI (DLD-1 colon) was greater than 100 µM. It also gave a TGI (RXF-631 renal) greater than 100 µM and a TGI (KM20L2 colon) greater than 100 µM.

Molecule O=C1C=CC=C/C1=C1/SC(c2ccccc2)=C(O)N1c1ccccc1 has a TGI (DMS 114 small cell lung) greater than 100 µM, a TGI (M19-MEL melanoma) greater than 100 µM and a TGI (DMS 273 small cell lung) greater than 100 µM. The TGI (KM20L2 colon) was greater than 100 µM.

C[CH2][Ge]([CH2]C)([CH2]C)[O]C(=O)C(OC(C)=O)c1ccccc1 (stereo not drawn) was tested, and the GI50 (HOP-18 NSCLC) was greater than 100 µM, the TGI (HOP-18 NSCLC) was greater than 100 µM and the TGI (XF 498 CNS) was 31 µM. It also gave a GI50 (DMS 114 small cell lung) of 42.1 µM, a TGI (DMS 114 small cell lung) greater than 100 µM and a GI50 (M19-MEL melanoma) greater than 100 µM. For the same molecule, the TGI (M19-MEL melanoma) was greater than 100 µM, the GI50 (DLD-1 colon) was greater than 100 µM and the TGI (DLD-1 colon) was greater than 100 µM. For the same molecule, the GI50 (RXF-631 renal) was greater than 100 µM, the TGI (RXF-631 renal) was greater than 100 µM and the GI50 (KM20L2 colon) was greater than 100 µM. It also gave a TGI (KM20L2 colon) greater than 100 µM.

For CN(C)c1ccc2oc(=O)c3ccccc3c2c1, the TGI (MDA-N) was greater than 100 µM.

In the case of CC1/C(=N\O)CC(c2ccccc2)N(C)C1c1ccccc1 (stereo not drawn), the TGI (DMS 114 small cell lung) is reported as greater than 100 µM, the TGI (M19-MEL melanoma) is reported as greater than 100 µM and the TGI (DMS 273 small cell lung) is reported as greater than 100 µM. The TGI (DLD-1 colon) was greater than 100 µM, the TGI (RXF-631 renal) was greater than 100 µM and the TGI (KM20L2 colon) was greater than 100 µM.

Work on O=C([CH-]C(=O)c1ccccc1)c1ccccc1.[CH-]1CCCCC1.[CH-]1CCCCC1.[CH-]1CCCCC1.[Sn+4] yielded a GI50 (KM20L2 colon) of 12.3 µM and a TGI (KM20L2 colon) of 26.3 µM.

O=C1CC(c2ccccc2)=Nc2ccccc2N1 showed a TGI (HOP-18 NSCLC) greater than 100 µM, a TGI (XF 498 CNS) greater than 100 µM and a TGI (M19-MEL melanoma) greater than 100 µM. For the same molecule, the TGI (DMS 273 small cell lung) was greater than 100 µM, the TGI (DLD-1 colon) was greater than 100 µM and the TGI (KM20L2 colon) was greater than 100 µM.

CCOP(=O)(OCC)C1CCCOC1=O (stereo not drawn) was tested, and the TGI (HOP-18 NSCLC) was greater than 100 µM, the TGI (XF 498 CNS) was greater than 100 µM and the TGI (DMS 114 small cell lung) was greater than 100 µM. It also gave a TGI (M19-MEL melanoma) greater than 100 µM, a TGI (DMS 273 small cell lung) greater than 100 µM and a TGI (DLD-1 colon) greater than 100 µM. For the same molecule, the TGI (RXF-631 renal) was greater than 100 µM and the TGI (KM20L2 colon) was greater than 100 µM.

With CCOC(=O)/C(=C/c1ccc(C(=O)OC)cc1)N(CC)CC the TGI (DMS 114 small cell lung) was greater than 100 µM, the TGI (M19-MEL melanoma) was greater than 100 µM and the TGI (KM20L2 colon) was greater than 100 µM.

For O=S(=O)(O)c1cc(O)c(N=Nc2ccc(O)cc2O)c2ccccc12, the TGI (MDA-N) was greater than 100 µM.

Cc1cccc(C)c1NC(=O)C1=NC(=S)NC(c2ccccc2)C1c1nc2ccccc2s1 (stereo not drawn) showed a TGI (HOP-18 NSCLC) greater than 100 µM, a TGI (XF 498 CNS) greater than 100 µM and a TGI (DMS 114 small cell lung) greater than 100 µM. For the same molecule, the TGI (M19-MEL melanoma) was greater than 100 µM, the TGI (DMS 273 small cell lung) was greater than 100 µM and the TGI (DLD-1 colon) was greater than 100 µM. For the same molecule, the TGI (KM20L2 colon) was greater than 100 µM.

For O=c1[nH]c2ccccc2nc1/C=C(\O)c1ccccc1O, the TGI (HOP-18 NSCLC) was greater than 100 µM, the TGI (DMS 114 small cell lung) was greater than 100 µM and the TGI (M19-MEL melanoma) was greater than 100 µM. For the same molecule, the TGI (DMS 273 small cell lung) was greater than 100 µM, the TGI (DLD-1 colon) was greater than 100 µM and the TGI (KM20L2 colon) was greater than 100 µM.

CCOC(=O)Oc1cc2c(c(OC)c1OC)-c1ccc(OC)c(=O)cc1C(NC(C)=O)CC2 (stereo not drawn) was tested, and the TGI (HOP-18 NSCLC) was greater than 100 µM, the TGI (XF 498 CNS) was greater than 100 µM and the TGI (MDA-N) was less than 0.0216 µM. It also gave a TGI (DMS 114 small cell lung) of 0.0301 µM, a TGI (M19-MEL melanoma) greater than 100 µM and a TGI (DMS 273 small cell lung) greater than 100 µM. It also gave a TGI (RXF-631 renal) greater than 22.5 µM and a TGI (KM20L2 colon) of 0.0866 µM.

For CC1CC[P+](c2ccccc2)(c2ccccc2)c2c1ccc1ccccc21 (stereo not drawn), the GI50 (MDA-N) was 2.98 µM and the TGI (MDA-N) was greater than 28.3 µM.

Work on C[N+](C)(C)CC(=O)N/N=C(/C(=O)Nc1ccc(Br)cc1)C1C(=O)NC(=O)NC1=O yielded a TGI (HOP-18 NSCLC) greater than 100 µM, a TGI (DMS 114 small cell lung) greater than 100 µM and a TGI (M19-MEL melanoma) greater than 100 µM. It also gave a TGI (DMS 273 small cell lung) greater than 100 µM, a TGI (DLD-1 colon) greater than 100 µM and a TGI (RXF-631 renal) greater than 100 µM. For the same molecule, the TGI (KM20L2 colon) was greater than 100 µM.

In the case of O=C(/C=C\c1ccc([N+](=O)[O-])cc1)c1ccccc(=O)c1O, the TGI (MDA-N) is reported as greater than 30.5 µM.

In the case of O=C(CC1OC(O)C(Cl)=C1Cl)c1cccnc1 (stereo not drawn), the TGI (HOP-18 NSCLC) is reported as greater than 100 µM, the TGI (XF 498 CNS) is reported as greater than 100 µM and the TGI (DMS 114 small cell lung) is reported as greater than 56.5 µM. The TGI (M19-MEL melanoma) was greater than 100 µM, the TGI (DMS 273 small cell lung) was greater than 100 µM and the TGI (RXF-631 renal) was greater than 100 µM. For the same molecule, the TGI (KM20L2 colon) was greater than 100 µM.

CC(C)(C)C1CCC2c3c([nH]c4ccccc34)C3C(=O)N(c4ccc(Cl)cc4)C(=O)C3C2C1 (stereo not drawn) was tested, and the GI50 (MDA-N) was 94.9 µM and > 10 µM and the TGI (MDA-N) was greater than 100 µM.

Work on CN(C)CCNC(=O)c1cccc2cc3c(Cl)cccc3nc12 yielded a TGI (HOP-18 NSCLC) greater than 27.6 µM, a TGI (XF 498 CNS) of 1.64 µM and a TGI (DMS 114 small cell lung) of 3.69 µM. For the same molecule, the TGI (M19-MEL melanoma) was 3.18 µM, the TGI (DMS 273 small cell lung) was greater than 100 µM and the TGI (DLD-1 colon) was 4.46 µM. The TGI (RXF-631 renal) was greater than 100 µM and the TGI (KM20L2 colon) was 4.75 µM.

COCN1COCN=C1NC#N showed a TGI (HOP-18 NSCLC) greater than 100 µM, a TGI (XF 498 CNS) greater than 100 µM and a TGI (DMS 114 small cell lung) greater than 100 µM. It also gave a TGI (M19-MEL melanoma) greater than 100 µM, a TGI (DMS 273 small cell lung) greater than 100 µM and a TGI (DLD-1 colon) greater than 100 µM. It also gave a TGI (RXF-631 renal) greater than 100 µM and a TGI (KM20L2 colon) greater than 100 µM.
